Assay results as given in patent publication US20030224076A1, “Anti-inflammatory and chemopreventive composition” (priority 2002, published 2003).

Assays:
[1] = Reactivity toward the mediator of inflammation hypochlorous acid (ethene liberation from ACC, GC); type: biochemical; conditions: HOCl 25 μM, ACC 1 mM, pH 5.7, 37° C., 30 minutes
From the text: Reactivity Toward the Mediator of Inflammation Hypochlorous Acid (HOCl) Cytotoxic hypochlorous acid is a specific product of phagocytosis-competent neutrophilic granulocytes. It is used to kill phagocytosed bacteria and viruses inside these leukocytes. Hypochlorous acid is, however, secreted through the leukocyte membrane into the extracellular medium, i.e. into the surrounding tissue, and there proves to be responsible for unwanted reactions like those observed at foci of inflammation (pain, reddening, swelling). A possible procedure for detecting the reactivity toward HOCI is as follows. HOCI liberates ethene specifically from ACC (1-aminocyclopropane-1-carboxylic acid), and the ethene is determined by gas chromatography. The following mixture is chosen to examine the interaction of the test substance in this model system: [table] The hypochlorous acid is allowed to interact with the bulking agents for 30 seconds and only then is the indicator molecule ACC added. The volume-calibrated reaction vessels which are closed gas-tight are then incubated at 37° C. for 30 minutes, and the ethene liberation is measured by GC. 5-aminosalicylate is employed in concentrations of 0.5-100 μM as positive control.

Caco-2 cells = assay: Protection of intestinal cells from genotoxic agents (comet assay, menadione-induced DNA damage); type: cell-based, human; conditions: menadione 2 μM alone (induced DNA damage)
Description: The procedure for the method is as follows: The human colon adenocarcinoma cell line Caco-2 was cultivated in Dulbecco's MEM/nut mix F-12 Ham medium (Gibco) with 20% FCS (Gibco) and 1% penicillin/streptomycin (Gibco). The cells were seeded in Petri dishes (ø 35 mm) 24 h before substance incubation. After incubation with the physiological extract from carob fiber (stock solution: 10% w/v carob fiber, Caromax™, Nutrinova, in cell culture medium, working solutions: 0.001-1%), the cells were washed with PBS buffer solution (phosphate buffered salt solution) and subsequently treated with the DNA-damaging agent menadione (2 μM) and trypsinized/centrifuged. This was followed by testing for the preventive activity of the carob fiber extracts. The modulation of DNA damage by the carob fiber extracts compared with the untreated control was checked by single-cell gel electrophoresis (comet assay). The extent of DNA damage was quantified from the proportion of DNA in the comet tail (% tail intensity, TI %). The independent baseline damage was always also measured in control tests.

Q: Which results are given for Nc1ccc(O)c(C(=O)O)c1 [5-Aminosalicylate, 5-aminosalicylate]?
A: Amount of ethene liberated from ACC in % ([1]; 5-aminosalicylate 0.5 μM): 100%; Amount of ethene liberated from ACC in % ([1]; 5-aminosalicylate 1 μM): 92%; Amount of ethene liberated from ACC in % ([1]; 5-aminosalicylate 5 μM): 52%; Amount of ethene liberated from ACC in % ([1]; 5-aminosalicylate 10 μM): 13%; Amount of ethene liberated from ACC in % ([1]; 5-aminosalicylate 50 μM): 5%; Amount of ethene liberated from ACC in % ([1]; 5-aminosalicylate 100 μM): 3%

Q: Which “TI % (proportion of DNA in the comet tail, % tail intensity)” value (Caco-2 cells) does the source give for CC1=CC(=O)c2ccccc2C1=O [menadione] here?
A: 13.6%
